Laboratory results as given in patent US10383861B2, “3-(1H-pyrrolo[2,3-C]pyridin-2-yl)-1H-pyrazolo[3,4-C]pyridines and therapeutic uses thereof” (Samumed, LLC, priority 2015, dated 2019).

Tests used:
Assay type in all cases: cell-based
SW480 colon cancer cells = assay: Cell viability assay (CellTiter-Blue) in SW480 colon cancer cells; settings: Homo sapiens; for EC50: 96 h, SW480 cell viability, four days, CellTiter-Blue; for inhibition at 10 µM: SW480, read-out: percent inhibition at 10 μM
Description: Representative compounds were screened using the following assay procedure to assess the effect on cell viability as described below.
Approximately 2×10^3 SW480 colon cancer cells were seeded into each well and allowed to incubate in the presence or absence of compound for four days at 37° C./5% CO2. Eight replicates of DMSO-treated cells served as controls and cells treated with compound were performed in duplicate.
After incubation, 20 μL of CellTiter-Blue (Promega) was added to each well allowed to incubate for approximately 3 hours. This reagent was a buffered solution which contains resazurin, metabolically active cells were able to reduce rezarurin (blue) into resorufin (pink) which was highly fluorescent. This measured fluorescence was used as a readout for cell viability.

Wnt activity = Wnt activity screening assay, Sp5-Luc reporter gene in SW480 cells; settings: Homo sapiens; for EC50: Sp5-Luc reporter, SW480 cells, overnight incubation
Description: The screening assay for Wnt activity is described as follows. Reporter cell lines can be generated by stably transducing cancer cell lines (e.g., colon cancer) or primary cells (e.g., IEC-6 intestinal cells) with a lentiviral construct that includes a Wnt-responsive promoter driving expression of the firefly luciferase gene.
SW480 colon carcinoma cells were transduced with a lentiviral vector expressing luciferase with a human Sp5 promoter consisting of a sequence of eight TCF/LEF binding sites. SW480 cells stably expressing the Sp5-Luc reporter gene and a hygromycin resistance gene were selected by treatment with 150 μg/mL of hygromycin for 7 days. These stably transduced SW480 cells were expanded in cell culture and used for all further screening activities. […] For Sp5-Luc reporter gene assays, the cells were plated at 4,000 cells/well in 384-well plates with medium containing 1% fetal bovine serum and incubated overnight at 37° C. and 5% CO2. Following incubation, 20 μl of BrightGlo luminescence reagent (Promega) was added to each well of the 384-well assay plates. The plates were placed on an orbital shaker for 2 min and then luminescence was quantified using the Envision (Perkin Elmer) plate reader. Readings were normalized to DMSO only treated cells, and normalized activities were utilized for EC50 calculations using the dose-response log (inhibitor) vs. response -variable slope (four parameters) nonlinear regression feature available in GraphPad Prism 5.0 (or Dotmatics).

[1] = tested on: primary human fibroblasts derived from IPF patients (LL29 cells); assay: Inhibition of the fibrotic process: αSMA staining in TGF-β1 treated LL29 fibroblasts; settings: Fibroblast; for EC50: 96 h, LL29 cells, TGF-β1 20 ng/mL, 4 days, % αSMA positive cells
Description: Representative compounds were screened using primary human fibroblasts (derived from IPF patients) treated with TGF-β1 to determine their ability to inhibit the fibrotic process.
LL29 cells are plated at 1,500 cells/well in 80 μL/well F12 medium supplemented with 1% Fetal Bovine Serum. […] Wells treated with TGF-β1 and containing DMSO were used as controls. […] Following incubation for 4 days, SYTOX green nucleic acid stain (Life Technologies [Thermo Fisher Scientific]) was added to the wells at a final concentration of 1 μM and incubated at room temperature for 30 min.

IL-6 = IL-6 inhibition in LPS-stimulated THP-1 cells (HTRF); settings: Homo sapiens; for EC50: THP-1 cells, LPS 500 ng/mL, 22 hours, IL6 HTRF; for inhibition at 10 µM: THP-1, read-out: percent inhibition at 10 μM
Description: THP-1 cells were cultured in basal media with 1% FBS for 24 hours before the start of the assay. […] THP-1 cells were plated at 5000 cells/well in the 384-well plates and incubated at 37° C. for 2 h. 500 ng/mL of LPS was added after 2 hours and cells were incubated for another 22 hours at 37° C. Plates were spun in a centrifuge for 1 minute at […] and a mixture of anti-IL6 XL665, and anti-IL6 Cryptate diluted in reconstitution buffer (Cisbio Inc.) was added to each well. Following incubation for 3 hrs at room temperature, Homogeneous Time-Resolved Fluorescence (HTRF) was measured using the Envision (Perkin Elmer) at 665 nm and […]. The ratio of fluorescence at 665 nm to 620 nm was used as a readout for IL6 quantification. All samples were processed in duplicate. Readings were normalized to DMSO treated cells and normalized activities were utilized for EC50 calculations using the dose-response log (inhibitor) vs. response -variable slope (four parameters) nonlinear regression feature available in GraphPad Prism 5.0 (or Dotmatics).

Row | SMILES | EC50 (SW480 colon cancer cells) [nM] | EC50 (Wnt activity) [nM] | EC50 (IL-6) [nM] | EC50 [1] [nM] | inhibition at 10 µM (SW480 colon cancer cells) [%] | inhibition at 10 µM (IL-6) [%] | inhibition at 10 µM (Wnt activity; SW480, read-out: percent inhibition at 10 μM) [%] | inhibition at 10 µM ([1]; read-out: percent inhibition at 10 μM) [%]
1 | CC(C)(C)C(=O)Nc1cncc(-c2cc3c(-c4cc5c(-c6ccc(F)cc6)cncc5[nH]4)n[nH]c3cn2)c1 [Compound 36, N-(5-(3-(4-(4-Fluorophenyl)-1H-pyrrolo[2,3-c]pyridin-2-yl)-1H-pyrazolo[3,4-c]pyridin-5-yl)pyridin-3-yl)pivalamide] | 1100 | 1600 | > 10000 | 299 | – | 29.6 | – | –
2 | O=C(Nc1cncc(-c2cc3c(-c4cc5c(-c6ccc(F)cc6)cncc5[nH]4)n[nH]c3cn2)c1)C1CCC1 [Compound 49, N-(5-(3-(4-(4-Fluorophenyl)-1H-pyrrolo[2,3-c]pyridin-2-yl)-1H-pyrazolo[3,4-c]pyridin-5-yl)pyridin-3-yl)cyclobutanecarboxamide] | > 10000 | 3650 | > 10000 | 3040 | 36 | 42.5 | – | –
3 | Fc1ccccc1-c1cncc2[nH]c(-c3n[nH]c4cnc(-c5ccccn5)cc34)cc12 [Compound 84, 3-(4-(2-Fluorophenyl)-1H-pyrrolo[2,3-c]pyridin-2-yl)-5-(pyridin-2-yl)-1H-pyrazolo[3,4-c]pyridine] | 1290 | 1060 | 3030 | 1390 | – | – | – | –
4 | CC(C)(C)CC(=O)Nc1cncc(-c2cc3c(-c4cc5c(-c6ccccc6F)cncc5[nH]4)n[nH]c3cn2)c1 [Compound 72, N-(5-(3-(4-(2-Fluorophenyl)-1H-pyrrolo[2,3-c]pyridin-2-yl)-1H-pyrazolo[3,4-c]pyridin-5-yl)pyridin-3-yl)-3,3-dimethylbutanamide] | 693 | 975 | 805 | 468 | – | – | – | –
5 | O=C(Nc1cncc(-c2cc3c(-c4cc5c(-c6ccncc6)cncc5[nH]4)n[nH]c3cn2)c1)c1ccccc1 [Compound 123, N-(5-(3-(4-(Pyridin-4-yl)-1H-pyrrolo[2,3-c]pyridin-2-yl)-1H-pyrazolo[3,4-c]pyridin-5-yl)pyridin-3-yl)benzamide] | > 10000 | > 10000 | > 10000 | > 10000 | 20.9 | 19 | 8 | 53.6
6 | c1cc(-c2cc3c(-c4cc5c(N6CCCCC6)cncc5[nH]4)n[nH]c3cn2)ccn1 [Compound 186, 3-(4-(Piperidin-1-yl)-1H-pyrrolo[2,3-c]pyridin-2-yl)-5-(pyridin-4-yl)-1H-pyrazolo[3,4-c]pyridine] | 3950 | 5510 | > 10000 | 4870 | – | 20.1 | – | –
7 | CN(C)c1cncc(-c2cc3c(-c4cc5c(-c6cccc(F)c6)cncc5[nH]4)n[nH]c3cn2)c1 [Compound 7, 5-(3-(4-(3-Fluorophenyl)-1H-pyrrolo[2,3-c]pyridin-2-yl)-1H-pyrazolo[3,4-c]pyridin-5-yl)-N,N-dimethylpyridin-3-amine] | 1260 | 2330 | 9840 | 1040 | – | – | – | –
8 | CC(C)(C)CC(=O)Nc1cncc(-c2cc3c(-c4cc5c(-c6ccc(F)cc6)cncc5[nH]4)n[nH]c3cn2)c1 [Compound 44, N-(5-(3-(4-(4-Fluorophenyl)-1H-pyrrolo[2,3-c]pyridin-2-yl)-1H-pyrazolo[3,4-c]pyridin-5-yl)pyridin-3-yl)-3,3-dimethylbutanamide] | 3510 | 679 | > 10000 | 434 | – | 16.2 | – | –

The next lines start with results.

Row | EC50 (SW480 colon cancer cells) [nM] | EC50 (Wnt activity) [nM] | EC50 (IL-6) [nM] | SMILES | EC50 [1] [nM] | inhibition at 10 µM (SW480 colon cancer cells) [%] | inhibition at 10 µM (IL-6) [%] | inhibition at 10 µM (Wnt activity; SW480, read-out: percent inhibition at 10 μM) [%] | inhibition at 10 µM ([1]; read-out: percent inhibition at 10 μM) [%]
9 | 1740 | 1590 | 4270 | Cc1ccncc1-c1cc2c(-c3cc4c(-c5ccoc5)cncc4[nH]3)n[nH]c2cn1 [Compound 313, 3-(4-(Furan-3-yl)-1H-pyrrolo[2,3-c]pyridin-2-yl)-5-(4-methylpyridin-3-yl)-1H-pyrazolo[3,4-c]pyridine] | 599 | – | – | – | –
10 | 2650 | 2540 | 3110 | CN(C)Cc1cncc(-c2cc3c(-c4cc5ccncc5[nH]4)n[nH]c3cn2)c1 [Compound 265, 1-(5-(3-(1H-Pyrrolo[2,3-c]pyridin-2-yl)-1H-pyrazolo[3,4-c]pyridin-5-yl)pyridin-3-yl)-N,N-dimethylmethanamine] | 1480 | – | – | – | –
11 | > 10000 | 977 | 3140 | O=C(Nc1cncc(-c2cc3c(-c4cc5ccncc5[nH]4)n[nH]c3cn2)c1)C1CC1 [Compound 272, N-(5-(3-(1H-Pyrrolo[2,3-c]pyridin-2-yl)-1H-pyrazolo[3,4-c]pyridin-5-yl)pyridin-3-yl)cyclopropanecarboxamide] | 467 | 29.9 | – | – | –
12 | > 10000 | 1030 | > 10000 | Cn1cc(-c2cc3c(-c4cc5c(-c6cc(F)cc(CNS(C)(=O)=O)c6)cncc5[nH]4)n[nH]c3cn2)cn1 [Compound 764, N-(3-Fluoro-5-(2-(5-(1-methyl-1H-pyrazol-4-yl)-1H-pyrazolo[3,4-c]pyridin-3-yl)-1H-pyrrolo[2,3-c]pyridin-4-yl)benzyl)methanesulfonamide] | 2420 | 9.3 | 20 | – | –
13 | 2980 | 2380 | 943 | CS(=O)(=O)NCc1cc(F)cc(-c2cncc3[nH]c(-c4n[nH]c5cnc(-c6ccccn6)cc45)cc23)c1 [Compound 504, N-(3-Fluoro-5-(2-(5-(pyridin-2-yl)-1H-pyrazolo[3,4-c]pyridin-3-yl)-1H-pyrrolo[2,3-c]pyridin-4-yl)benzyl)methanesulfonamide] | 2010 | – | – | – | –
14 | 1300 | 1340 | 3170 | c1ncc(-c2cc3c(-c4cc5c(N6CCCCC6)cncc5[nH]4)n[nH]c3cn2)cc1OC1CCCCC1 [Compound 607, 5-(5-(Cyclohexyloxy)pyridin-3-yl)-3-(4-(piperidin-1-yl)-1H-pyrrolo[2,3-c]pyridin-2-yl)-1H-pyrazolo[3,4-c]pyridine] | 532 | – | – | – | –
15 | 3960 | 3480 | 3580 | c1cc2cc(-c3n[nH]c4cnc(-c5cncc(CNCC6CCCC6)c5)cc34)[nH]c2cn1 [Compound 277, 1-(5-(3-(1H-Pyrrolo[2,3-c]pyridin-2-yl)-1H-pyrazolo[3,4-c]pyridin-5-yl)pyridin-3-yl)-N-(cyclopentylmethyl)methanamine] | 1810 | – | – | – | –
16 | 820 | 2860 | 3580 | CN(C)c1cncc(-c2cc3c(-c4cc5ccncc5[nH]4)n[nH]c3cn2)c1 [Compound 259, 5-(3-(1H-Pyrrolo[2,3-c]pyridin-2-yl)-1H-pyrazolo[3,4-c]pyridin-5-yl)-N,N-dimethylpyridin-3-amine] | 606 | – | – | – | –
17 | > 10000 | 3650 | 1000 | CC(C)C(=O)Nc1cncc(-c2cc3c(-c4cc5c(-c6ccoc6)cncc5[nH]4)n[nH]c3cn2)c1 [Compound 317, N-(5-(3-(4-(Furan-3-yl)-1H-pyrrolo[2,3-c]pyridin-2-yl)-1H-pyrazolo[3,4-c]pyridin-5-yl)pyridin-3-yl)isobutyramide] | 4880 | 0 | – | – | –
